Test results from ChEMBL document CHEMBL1201862, “PubChem BioAssay data set” (2004).
Activity calls are given as the source filed them.

Tests used:
[1] = molecular target: T1, Delta-type opioid receptor (Homo sapiens, UniProt P41143); assay: HTS Image-Based Screen for Agonists of the DOR Receptor. [Related pubchem assays (depositor defined):AID1777, AID1786, AID2133]; format: functional
[2] = HepG2 cell cytotoxicity, dose response, cytotoxicity control for Shn3 inhibitor project, CellTiter-Glo, cherry-picked (AID 624134); format: functional, cell-based
[3] = molecular target: T2, Kappa-type opioid receptor (Homo sapiens, UniProt P41145); format: functional
T2 sequence (P41145 whole entry): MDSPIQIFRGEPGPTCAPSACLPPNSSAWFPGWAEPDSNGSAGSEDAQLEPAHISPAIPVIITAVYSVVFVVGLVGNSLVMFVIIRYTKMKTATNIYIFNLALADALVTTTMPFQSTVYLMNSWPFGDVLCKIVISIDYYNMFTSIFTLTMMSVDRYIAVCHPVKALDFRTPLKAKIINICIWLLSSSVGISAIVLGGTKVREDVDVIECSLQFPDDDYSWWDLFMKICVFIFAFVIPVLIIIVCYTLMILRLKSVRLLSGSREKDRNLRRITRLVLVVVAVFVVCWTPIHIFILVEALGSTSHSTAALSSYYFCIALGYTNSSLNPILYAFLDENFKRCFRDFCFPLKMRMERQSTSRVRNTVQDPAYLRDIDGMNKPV

[4] = molecular target: T3, Replicative DNA helicase DnaB (Mycobacterium tuberculosis, UniProt P9WMR3); assay: DnaB intein splicing inhibitors, dose response, biochemical, cell-free fluorescence (AID 449749); format: functional
T3 sequence (P9WMR3 whole entry): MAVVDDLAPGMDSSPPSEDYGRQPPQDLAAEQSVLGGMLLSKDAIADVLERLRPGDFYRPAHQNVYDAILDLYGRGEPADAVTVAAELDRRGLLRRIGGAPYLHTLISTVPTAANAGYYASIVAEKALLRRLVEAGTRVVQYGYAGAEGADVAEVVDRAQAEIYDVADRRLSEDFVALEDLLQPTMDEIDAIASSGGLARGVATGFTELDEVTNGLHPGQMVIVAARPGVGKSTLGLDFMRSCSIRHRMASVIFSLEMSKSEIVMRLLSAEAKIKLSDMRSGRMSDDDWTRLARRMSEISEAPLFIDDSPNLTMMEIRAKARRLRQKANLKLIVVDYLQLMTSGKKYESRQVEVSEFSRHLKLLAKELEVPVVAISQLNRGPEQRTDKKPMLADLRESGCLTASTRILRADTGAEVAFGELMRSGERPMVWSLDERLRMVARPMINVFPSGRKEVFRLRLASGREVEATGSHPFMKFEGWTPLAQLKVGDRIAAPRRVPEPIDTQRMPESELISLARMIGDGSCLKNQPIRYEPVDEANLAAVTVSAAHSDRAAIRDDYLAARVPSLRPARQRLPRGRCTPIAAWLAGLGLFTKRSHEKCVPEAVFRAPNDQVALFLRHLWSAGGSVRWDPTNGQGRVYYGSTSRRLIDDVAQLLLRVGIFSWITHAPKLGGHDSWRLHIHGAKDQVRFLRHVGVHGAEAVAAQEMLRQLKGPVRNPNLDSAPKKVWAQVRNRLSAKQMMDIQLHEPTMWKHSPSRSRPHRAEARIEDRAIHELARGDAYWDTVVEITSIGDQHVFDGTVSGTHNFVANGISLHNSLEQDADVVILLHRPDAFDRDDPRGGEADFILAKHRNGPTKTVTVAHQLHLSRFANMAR

CHO = assay: cytotoxicity in TLR9-MyD88 CHO cells, dose response, cytotoxicity control for TLR9-MyD88 binding inhibitor project, cell-based, luminescence (AID 588339); format: functional, hamster; settings: Cricetulus griseus;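 further: CHO cells stably coexpressing TLR9 and MyD88 fusions from primary screen; compound exposure lasted 48 hours before viability readout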
Beta-galactosidase = Beta-galactosidase (Escherichia coli, UniProt Q8VNN2); format: functional
Beta-galactosidase, sequence (Q8VNN2 whole entry): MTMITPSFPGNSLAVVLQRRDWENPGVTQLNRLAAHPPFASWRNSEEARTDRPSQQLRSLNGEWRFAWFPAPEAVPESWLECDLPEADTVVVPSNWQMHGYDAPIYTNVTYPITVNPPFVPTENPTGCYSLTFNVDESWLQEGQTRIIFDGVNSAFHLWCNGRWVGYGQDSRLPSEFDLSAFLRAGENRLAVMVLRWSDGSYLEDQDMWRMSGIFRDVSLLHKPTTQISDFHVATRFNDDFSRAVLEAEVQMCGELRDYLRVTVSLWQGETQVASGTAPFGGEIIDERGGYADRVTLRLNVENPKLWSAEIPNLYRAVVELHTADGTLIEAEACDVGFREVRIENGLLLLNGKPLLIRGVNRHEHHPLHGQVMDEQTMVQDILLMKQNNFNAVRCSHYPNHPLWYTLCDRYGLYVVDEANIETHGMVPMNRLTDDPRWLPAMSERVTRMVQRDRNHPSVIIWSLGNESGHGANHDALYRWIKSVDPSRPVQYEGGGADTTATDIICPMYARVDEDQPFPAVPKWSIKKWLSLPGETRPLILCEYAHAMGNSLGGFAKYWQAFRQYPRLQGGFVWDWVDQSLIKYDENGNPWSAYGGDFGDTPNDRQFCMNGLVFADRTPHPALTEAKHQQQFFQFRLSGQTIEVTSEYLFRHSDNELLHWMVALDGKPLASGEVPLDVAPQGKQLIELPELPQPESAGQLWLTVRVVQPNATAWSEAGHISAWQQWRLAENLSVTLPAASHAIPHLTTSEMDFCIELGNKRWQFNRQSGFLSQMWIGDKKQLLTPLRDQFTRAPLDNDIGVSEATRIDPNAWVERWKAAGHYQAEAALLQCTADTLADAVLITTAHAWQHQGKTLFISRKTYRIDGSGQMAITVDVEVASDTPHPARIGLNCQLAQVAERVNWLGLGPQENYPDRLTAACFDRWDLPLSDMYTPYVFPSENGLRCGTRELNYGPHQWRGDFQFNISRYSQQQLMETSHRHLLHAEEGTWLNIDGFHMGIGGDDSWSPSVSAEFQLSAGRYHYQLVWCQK

[5] = control 3'UTR Renilla luciferase suppression, dose response, counter-screen for Shn3 inhibitor project, cell-based, Clone20-Shn3RL, cherry-picked (AID 624133); format: functional
[6] = molecular target: T1, Delta-type opioid receptor; assay: HTS Image-Based Screen for Antagonists of the DOR Receptor. [Related pubchem assays (depositor defined):AID1777, AID1785, AID1786, AID2133]; format: functional
Protein RecA = molecular target: T4, Protein RecA (Mycobacterium tuberculosis, UniProt P9WHJ3); assay: Fluorescence Cell-Free Homogeneous Dose Retest to Identify Inhibitors of RecA-Intein Splicing Activity. [Related pubchem assays (depositor defined):AID2097, AID2223, AID489010, AID492950]; format: functional
T4 sequence (P9WHJ3 whole entry): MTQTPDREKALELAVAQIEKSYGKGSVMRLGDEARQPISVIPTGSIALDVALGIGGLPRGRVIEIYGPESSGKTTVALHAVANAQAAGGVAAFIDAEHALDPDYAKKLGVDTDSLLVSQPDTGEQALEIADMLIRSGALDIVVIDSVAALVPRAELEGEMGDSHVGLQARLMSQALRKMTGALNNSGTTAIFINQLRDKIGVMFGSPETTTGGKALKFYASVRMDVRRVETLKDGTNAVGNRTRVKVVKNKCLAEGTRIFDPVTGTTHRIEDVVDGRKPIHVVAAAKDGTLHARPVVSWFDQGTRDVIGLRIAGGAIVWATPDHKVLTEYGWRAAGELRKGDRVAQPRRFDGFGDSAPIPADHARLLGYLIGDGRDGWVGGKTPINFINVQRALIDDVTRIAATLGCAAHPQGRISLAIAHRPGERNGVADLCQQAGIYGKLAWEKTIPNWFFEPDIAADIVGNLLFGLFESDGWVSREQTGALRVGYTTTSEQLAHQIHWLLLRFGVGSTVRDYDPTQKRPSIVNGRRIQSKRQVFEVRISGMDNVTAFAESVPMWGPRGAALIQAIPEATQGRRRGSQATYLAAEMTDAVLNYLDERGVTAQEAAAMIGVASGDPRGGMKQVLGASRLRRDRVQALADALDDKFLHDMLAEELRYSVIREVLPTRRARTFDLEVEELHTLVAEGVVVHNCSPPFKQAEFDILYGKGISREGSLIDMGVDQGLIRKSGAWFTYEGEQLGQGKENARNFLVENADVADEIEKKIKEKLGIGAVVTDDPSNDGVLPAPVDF

Mu-type opioid receptor = Mu-type opioid receptor (Homo sapiens, UniProt P35372); assay: HTS Image-Based Screen for Agonists of the MOR Receptor. [Related pubchem assays (depositor defined):AID1777, AID1785, AID1786, AID2133]; format: functional;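 further: imaging of beta-arrestin GFP recruitment into spots after receptor activation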
Mu-type opioid receptor, sequence (P35372 whole entry): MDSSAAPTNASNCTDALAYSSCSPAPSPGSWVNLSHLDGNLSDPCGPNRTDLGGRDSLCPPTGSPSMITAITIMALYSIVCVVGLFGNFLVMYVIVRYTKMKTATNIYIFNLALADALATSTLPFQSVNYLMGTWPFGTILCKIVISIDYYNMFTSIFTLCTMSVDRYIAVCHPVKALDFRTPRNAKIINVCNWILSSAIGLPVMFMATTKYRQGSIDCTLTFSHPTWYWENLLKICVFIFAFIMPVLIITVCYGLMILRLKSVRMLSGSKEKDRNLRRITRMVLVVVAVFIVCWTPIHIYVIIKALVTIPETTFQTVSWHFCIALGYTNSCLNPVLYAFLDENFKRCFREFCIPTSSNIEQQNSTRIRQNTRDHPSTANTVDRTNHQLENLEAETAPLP

Beta Lactamase = Beta Lactamase (Pseudomonas aeruginosa, UniProt Q932Y6); assay: beta-lactamase reporter inhibitor potency, dose response, artefact control for TLR9-MyD88 binding inhibitor project, BLA reporter cells, FRET fluorescence (AID 588341); format: cell-based;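 further: cell based assay in CHO-K1 cells stably expressing beta-lactamase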
Beta Lactamase, sequence (Q932Y6 whole entry): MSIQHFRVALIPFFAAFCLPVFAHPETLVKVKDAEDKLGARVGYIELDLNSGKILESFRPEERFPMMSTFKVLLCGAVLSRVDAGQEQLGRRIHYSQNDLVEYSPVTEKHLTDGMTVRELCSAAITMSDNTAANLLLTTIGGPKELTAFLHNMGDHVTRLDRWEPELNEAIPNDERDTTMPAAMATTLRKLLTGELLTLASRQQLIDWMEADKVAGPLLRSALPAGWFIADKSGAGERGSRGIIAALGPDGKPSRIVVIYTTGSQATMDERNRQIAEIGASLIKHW

[7] = molecular target: ATP-binding cassette sub-family B member 6 (Homo sapiens, UniProt Q9NP58); assay: ABCB6 transporter inhibitors, porphyrin accumulation, dose response, flow cytometry, K562-ABCB6 cells, cherry pick 02 (AID 624487); format: functional; settings: read-out: EC50_MICROM
ATP-binding cassette sub-family B member 6, sequence (Q9NP58 whole entry): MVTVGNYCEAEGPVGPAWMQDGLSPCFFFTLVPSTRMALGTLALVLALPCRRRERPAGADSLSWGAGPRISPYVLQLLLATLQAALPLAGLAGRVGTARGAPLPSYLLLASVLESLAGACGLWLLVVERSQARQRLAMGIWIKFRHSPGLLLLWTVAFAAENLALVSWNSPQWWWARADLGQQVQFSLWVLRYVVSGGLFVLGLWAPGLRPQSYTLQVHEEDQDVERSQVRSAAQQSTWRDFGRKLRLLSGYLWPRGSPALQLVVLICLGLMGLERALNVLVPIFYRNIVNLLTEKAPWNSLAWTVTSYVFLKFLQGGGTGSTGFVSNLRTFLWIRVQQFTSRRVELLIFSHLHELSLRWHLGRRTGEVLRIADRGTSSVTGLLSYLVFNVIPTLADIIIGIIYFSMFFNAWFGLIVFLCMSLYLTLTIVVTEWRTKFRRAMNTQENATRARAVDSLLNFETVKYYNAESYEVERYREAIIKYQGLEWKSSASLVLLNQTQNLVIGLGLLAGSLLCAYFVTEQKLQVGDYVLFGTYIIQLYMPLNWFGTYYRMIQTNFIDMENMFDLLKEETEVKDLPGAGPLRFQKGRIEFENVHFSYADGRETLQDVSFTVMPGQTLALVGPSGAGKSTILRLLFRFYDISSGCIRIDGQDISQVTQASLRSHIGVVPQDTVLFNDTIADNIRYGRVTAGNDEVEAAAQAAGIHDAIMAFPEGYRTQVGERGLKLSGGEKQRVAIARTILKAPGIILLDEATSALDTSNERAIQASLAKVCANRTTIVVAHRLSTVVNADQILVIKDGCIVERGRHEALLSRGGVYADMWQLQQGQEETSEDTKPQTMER

[8] = molecular target: T2, Kappa-type opioid receptor; format: functional; remark: listed apart in the source
[9] = Shn3 3'UTR reporter inhibitors, dose response, cell-based, Clone20 osteoblasts, firefly luciferase, cherry-picked (AID 624132); format: functional;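 further: firefly luciferase luminescence from reporter carrying the Shn3 3'UTR in osteoblasts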
[10] = molecular target: Heat shock protein HSP 90-alpha (Homo sapiens, UniProt P07900); format: functional, organism-based
[11] = molecular target: Long-chain-fatty-acid--AMP ligase FadD28 (Mycobacterium tuberculosis, UniProt P9WQ59); assay: Fluorescence polarization aasay to screen for inhibitors that compete for the binding of FadD28 to a bisubstrate Measured in Biochemical System Using Plate Reader - 2147-01_Inhibitor_Dose_CherryPick_Activity.; format: functional, Mycobacterium tuberculosis H37Rv
[12] = HepG2 cell cytotoxicity, dose response, cytotoxicity control, ATP luminescence, cherry-pick, activator set 2 (AID 1053143); format: functional, cell-based
Beta-lactamase [13] = molecular target: Beta-lactamase (Salmonella choleraesuis (strain SC-B67), UniProt Q5J463); assay: Epi-absorbance-based counterscreen for selective VIM-2 inhibitors: dose response biochemical high throughput screening assay to identify inhibitors of TEM-1 serine-beta-lactamase.
Beta-lactamase (Salmonella choleraesuis (strain SC-B67), UniProt Q5J463), sequence (Q5J463 whole entry): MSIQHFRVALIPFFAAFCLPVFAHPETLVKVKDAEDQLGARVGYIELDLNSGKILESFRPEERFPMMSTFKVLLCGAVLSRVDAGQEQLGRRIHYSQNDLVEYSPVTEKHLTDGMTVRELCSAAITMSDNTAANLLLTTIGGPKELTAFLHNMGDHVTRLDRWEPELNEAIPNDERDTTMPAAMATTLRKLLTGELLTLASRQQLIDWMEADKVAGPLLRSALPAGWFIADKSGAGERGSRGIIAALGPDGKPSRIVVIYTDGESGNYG

Beta-lactamase [14] = molecular target: T5, Beta-lactamase (Pseudomonas aeruginosa, UniProt Q79MP6); assay: IMP-1 metallo-beta-lactamase inhibitors, dose response, selectivity assay for VIM-2 inhibitor project, biochemical, epi-absorbance (AID 1920)
T5 sequence (Q79MP6 whole entry): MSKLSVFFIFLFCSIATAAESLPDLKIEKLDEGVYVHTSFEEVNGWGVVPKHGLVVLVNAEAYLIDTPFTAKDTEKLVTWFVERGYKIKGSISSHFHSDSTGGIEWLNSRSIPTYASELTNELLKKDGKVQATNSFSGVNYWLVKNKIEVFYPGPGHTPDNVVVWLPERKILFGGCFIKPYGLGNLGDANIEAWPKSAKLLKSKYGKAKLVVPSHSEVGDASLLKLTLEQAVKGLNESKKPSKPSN

Beta-lactamase [15] = molecular target: T5, Beta-lactamase; assay: […] counterscreen for selective VIM-2 inhibitors: dose response biochemical high throughput screening assay to identify inhibitors of IMP-1 metallo-beta-lactamase.
[16] = inhibitors of intracellular T. cruzi replication, confirmation, NIH3T3 host cells, beta-gal luminescence (AID 2044); format: functional, cell-based;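 further: intracellular parasites grown in NIH/3T3 mouse fibroblasts as host cells; luminescent beta-galactosidase reporter signal from transgenic T. cruzi replicating inside host cells; inhibitors lower the luminescence signal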
cells = format: functional
Caspase-3 = molecular target: T6, Caspase-3 (Homo sapiens, UniProt P42574); assay: Dose-response confirmation of uHTS inhibitor hits of Sentrin-Specific Protease 8 in a Caspase-3 Fluorescence assay.; format: functional
T6 sequence (P42574 whole entry): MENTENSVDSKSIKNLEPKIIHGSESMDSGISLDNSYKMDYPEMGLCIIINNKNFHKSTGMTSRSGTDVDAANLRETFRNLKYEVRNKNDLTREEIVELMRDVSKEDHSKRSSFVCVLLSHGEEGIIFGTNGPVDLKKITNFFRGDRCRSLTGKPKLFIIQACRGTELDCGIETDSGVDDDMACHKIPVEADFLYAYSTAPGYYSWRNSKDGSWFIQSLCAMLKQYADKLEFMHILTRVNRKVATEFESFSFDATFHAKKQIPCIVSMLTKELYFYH

[17] = molecular target: T7, Sentrin-specific protease 8 (Homo sapiens, UniProt Q96LD8); format: functional
T7 sequence (Q96LD8 whole entry): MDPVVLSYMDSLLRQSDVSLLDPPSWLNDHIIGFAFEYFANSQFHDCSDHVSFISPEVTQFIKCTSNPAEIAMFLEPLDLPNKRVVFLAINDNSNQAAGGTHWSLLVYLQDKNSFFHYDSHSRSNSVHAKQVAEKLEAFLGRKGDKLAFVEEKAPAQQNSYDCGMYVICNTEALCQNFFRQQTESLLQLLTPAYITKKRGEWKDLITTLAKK

[18] = molecular target: T7, Sentrin-specific protease 8; format: functional; remark: listed apart in the source
[19] = cytotoxicity toward NIH3T3 fibroblasts, dose response, counter-screen, cell-based, ATP luminescence, mouse fibroblasts (AID 2010); format: functional;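 further: cells exposed to compound for about 90 hours before reading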
[20] = molecular target: Beta-2 adrenergic receptor (Homo sapiens, UniProt P07550); assay: Dose response for HTS for Beta-2AR agonists via FAP method from Powderset3.; format: functional
[21] = ADAM10 protease inhibitors, dose response, selectivity assay for ADAM17 exosite inhibitor project, biochemical, FRET peptide substrate, recombinant human ADAM10 (AID 743259);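 further: ADAM10 enzyme cleaving a FRET peptide substrate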
[22] = molecular target: Disintegrin and metalloproteinase domain-containing protein 17 (Homo sapiens, UniProt P78536); assay: exosite inhibitors of ADAM17, dose response, biochemical (AID 743260)
[23] = inhibitors of TNFa-stimulated NF-kB luciferase reporter, dose response, selectivity assay for EBV LMP1 NF-kB inhibitor project, HEK293 LMP1 reporter cells, dry powder, set 2 (AID 624369); format: functional
[24] = LMP1-driven NF-kB reporter inhibition, dose response, cell-based, luciferase reporter, luminescence, dry powder, set 2 (AID 624376); format: functional
[25] = HEK293 cell viability, dose response, counter-screen for EBV LMP1 inhibitor project, dry powder, set 2 (AID 624374); format: functional
[26] = molecular target: Protein disulfide-isomerase (Homo sapiens, UniProt P07237); assay: PDI inhibitors, insulin turbidity readout, confirmation, biochemical, dry powder samples, set 2 (AID 652146)
Protein disulfide-isomerase, sequence (P07237 whole entry): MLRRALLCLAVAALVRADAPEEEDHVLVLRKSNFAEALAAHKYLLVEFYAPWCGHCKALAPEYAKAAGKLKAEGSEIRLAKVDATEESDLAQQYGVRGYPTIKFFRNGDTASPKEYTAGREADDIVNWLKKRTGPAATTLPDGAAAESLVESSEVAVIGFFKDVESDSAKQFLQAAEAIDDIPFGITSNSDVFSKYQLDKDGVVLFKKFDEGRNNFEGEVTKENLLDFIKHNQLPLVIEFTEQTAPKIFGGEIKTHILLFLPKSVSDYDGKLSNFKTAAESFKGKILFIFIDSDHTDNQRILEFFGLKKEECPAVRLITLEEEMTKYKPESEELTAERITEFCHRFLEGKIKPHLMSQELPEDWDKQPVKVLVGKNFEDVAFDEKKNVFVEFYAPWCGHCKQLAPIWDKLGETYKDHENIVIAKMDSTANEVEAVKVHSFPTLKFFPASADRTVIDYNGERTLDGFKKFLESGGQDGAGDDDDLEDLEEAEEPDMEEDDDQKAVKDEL

[27] = A375 melanoma cell viability loss, dose response, counter-screen for MITF inhibitor project, CellTiter-Glo luminescence, dry powder, set 4 (AID 624364); format: functional, cell-based; settings: A-375;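 further: A375 melanoma cells are MITF independent so this is a counter screen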
[28] = A375 melanoma cell cytotoxicity, dose response, counter-screen for MITF inhibitor project, CellTiter-Glo luminescence, dry powder, set 2 (AID 624489); format: functional, cell-based; settings: A-375;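 further: actives are compounds lowering A375 viability meaning general cytotoxicity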
NS3 = NS3 (Hepatitis C virus, UniProt A3EZJ3); assay: HCV NS3 helicase inhibitor potency, dose response, biochemical, fluorescence polarization, ChemBridge library (AID 743264)
NS3, sequence (A3EZJ3 whole entry): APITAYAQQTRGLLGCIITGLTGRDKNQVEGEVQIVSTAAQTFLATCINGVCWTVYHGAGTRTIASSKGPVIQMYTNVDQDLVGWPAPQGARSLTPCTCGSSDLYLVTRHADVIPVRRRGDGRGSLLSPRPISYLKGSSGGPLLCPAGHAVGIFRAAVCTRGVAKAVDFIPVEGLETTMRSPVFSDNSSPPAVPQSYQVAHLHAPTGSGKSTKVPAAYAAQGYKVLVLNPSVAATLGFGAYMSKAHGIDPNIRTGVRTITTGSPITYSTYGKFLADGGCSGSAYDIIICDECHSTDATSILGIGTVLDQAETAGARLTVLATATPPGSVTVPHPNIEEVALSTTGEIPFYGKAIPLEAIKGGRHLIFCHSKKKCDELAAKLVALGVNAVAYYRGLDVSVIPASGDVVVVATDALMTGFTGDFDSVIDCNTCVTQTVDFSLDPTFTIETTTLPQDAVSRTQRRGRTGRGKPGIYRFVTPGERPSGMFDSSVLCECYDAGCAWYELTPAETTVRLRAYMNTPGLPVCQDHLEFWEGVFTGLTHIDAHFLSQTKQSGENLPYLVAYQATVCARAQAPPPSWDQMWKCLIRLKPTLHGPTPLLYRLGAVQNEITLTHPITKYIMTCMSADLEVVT

T1 sequence (P41143 whole entry): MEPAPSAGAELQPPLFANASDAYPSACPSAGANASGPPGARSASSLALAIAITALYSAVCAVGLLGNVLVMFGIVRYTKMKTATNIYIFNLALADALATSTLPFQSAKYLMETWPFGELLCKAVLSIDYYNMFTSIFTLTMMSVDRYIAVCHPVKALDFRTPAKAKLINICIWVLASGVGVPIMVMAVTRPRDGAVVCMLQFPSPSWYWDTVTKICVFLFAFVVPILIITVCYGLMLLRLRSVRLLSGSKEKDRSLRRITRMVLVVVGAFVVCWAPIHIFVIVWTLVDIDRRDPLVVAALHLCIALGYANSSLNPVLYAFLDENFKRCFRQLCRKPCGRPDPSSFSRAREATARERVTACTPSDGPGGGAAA

## CCc1ccc(NC(=O)c2nc(S(=O)(=O)Cc3ccccc3)ncc2Cl)cc1
[1]
  EC50: > 32 µM (inactive)
[2]
  AC50: 24.4 µM (active)
[3]
  IC50: 13.7 µM (active)
[4]
  AC50: 2.28 µM (active)
CHO
  IC50: 2.91 µM (active)
Beta-galactosidase
  EC50: > 31.5 µM (inactive)
[5]
  AC50: 8.1 µM (active)
[6]
  IC50: 11.9 µM (inactive)
Protein RecA
  EC50: 1.82 µM (active)
Mu-type opioid receptor
  EC50: > 32 µM (inactive)
Beta Lactamase
  IC50: 12.1 µM (inactive)
[7]
  EC50: 23.9 µM (active)
[8]
  IC50: 7.28 µM
[9]
  AC50: 0.551 µM (active)
[10]
  AC50: 1.74 µM (active)

## COc1cc([N+](=O)[O-])ccc1N=C(S)NNC(=O)c1ccc2c(c1)OCO2
[11]
  AC50: > 100 µM (inactive)

## COc1cccc(NC(=O)c2ccc3c(c2)N(C)CCS3)c1
[12]
  AC50: 26 µM (active)

## S=c1[nH]nc(C2CC2)n1Cc1ccccc1
Beta-lactamase [13]
  IC50: > 59.6 µM (inactive)
Beta-lactamase [14]
  IC50: > 59.6 µM (inactive)
Beta-lactamase [15]
  IC50: > 59.6 µM (inactive)

## CC(=O)N1N=C(c2ccccc2)OC1c1ccc([N+](=O)[O-])s1 (centres undefined)
[16]
  EC50: 1.79 µM (active)
cells
  IC50: 43.3 µM (active)
Caspase-3
  IC50: 48.3 µM (active)
[2]
  AC50: 39.3 µM (active)
[5]
  AC50: 14.3 µM (active)
[17]
  IC50: 6.39 µM (active)
[18]
  IC50: 6.49 µM (active)
[19]
  EC50: 10.8 µM (active)
[10]
  AC50: 8.37 µM (active)

## COCc1ccc(CN2CCCC(C(=O)Nc3ccc(-c4cccc(OC)c4)cc3)C2)o1 (centres undefined)
[20]
  EC50: 607 µM (inactive)

## COc1ccc(C(c2nnnn2Cc2ccccc2)N2CCN(C/C=C/c3ccccc3)CC2)cc1 (centres undefined)
[21]
  IC50: > 69.5 µM (inactive)
[22]
  IC50: > 69.5 µM (inactive)

## O=C(C[C@@H]1CC[C@H]2[C@@H](COC[C@H](O)CN2Cc2ccc(Oc3ccccc3)cc2)O1)N1CCc2ccccc2C1
[23]
  AbsAC35: 67.78 µM

## COc1cccc(S(=O)(=O)N(C)C[C@@H]2Oc3cc(C4=CCCCC4)ccc3S(=O)(=O)N([C@@H](C)CO)C[C@@H]2C)c1
[24]
  AbsAC35: 50.42 µM

## CC(C)(C)[S@@+]([O-])N1Cc2cc(C(=O)NCc3ccccc3F)nc(-c3cccc(-c4cccnc4)c3)c2[C@H]1CCO
[25]
  AbsAC35: 245.66 µM

## C/C1=C\C[C@H](OC(=O)c2ccc(O)cc2)/C(C)=C/[C@@H](O)C(C)(C)CCC1
[26]
  AC50: 2 µM (active)

## O=C1C(NS(=O)(=O)c2ccc(Br)s2)=C(N2CCOCC2)C(=O)c2ccccc21
[27]
  AC50: > 70 µM (inactive)
[28]
  AC50: > 70 µM (inactive)

## O=C1NC(=O)C(=Cc2ccc(-c3cc([N+](=O)[O-])ccc3O)o2)C(=O)N1
NS3
  IC50: 66.1 µM (active)
